Assay [1] deals with T1, NiFe-HydABCSL (Acetomicrobium mobile, UniProt I4BYB5).
T1 construct: gene Anamo_1678; native purification from A. mobile, untagged; dimer of heteropentamers (~500 kDa by SEC; 233 kDa per pentamer); with Electron-bifurcating NiFe-hydrogenase subunit HydA; Electron-bifurcating NiFe-hydrogenase subunit HydC (NADH:ubiquinone oxidoreductase 24 kD subunit); NiFe-hydrogenase small subunit HydS; NiFe-hydrogenase large subunit HydL
The assay can be described thus: H2-dependent bifurcation assay, Fd reduction at […] nm. Type of assay: biochemical. The following applies: 100% H2, 40 µM A. mobile Fd, 1 mM NAD, enzyme retains about 0.35 FMN per mole.

Assay [2] addresses T1, NiFe-HydABCSL. The assay can be described thus: cryo-EM structure of complex, […] Å. The note with it: 100 µM FMN with 100 µM NADH and 10 µM A. mobile Fd; site in HydB Rossmann fold, next to B1 [4Fe-4S] cluster; stacked on FMN in HydB; modelled as NAD(H). Type of assay: binding.
In assay [3] the target is T1, NiFe-HydABCSL. In words: H2-dependent bifurcation assay, simultaneous Fd and NAD reduction. Type of assay: biochemical. The following applies: 100% H2, 40 µM A. mobile Fd, 10 µM FMN, 1 mM NAD.
Assay [4] deals with A. mobile NiFe-HydABCSL hydrogenase (heteropentamer) (A. mobile (endogenous in A. mobile cells)). In words: SEC; HiLoad Superdex 200 prepgrade XK 16/60, 25 mM tris pH 8.0, 300 mM NaCl, 5% glycerol, 2.5% trehalose, anaerobic; decamer to pentamers. (In general: Size exclusion chromatography separates by hydrodynamic size, large species first.)
Assay [5] shares this target. In words: cryo-EM structure; single-particle cryo-EM of the enzyme as purified, flavin-free apo state, C2 symmetry, 3.2 Å.

`Cc1cc2nc3c(=O)[nH]c(=O)nc-3n(C[C@H](O)[C@H](O)[C@H](O)COP(=O)(O)OP(=O)(O)OC[C@H]3O[C@@H](n4cnc5c(N)ncnc54)[C@H](O)[C@@H]3O)c2cc1C` [FAD]: the “% stimulation” value in assay [1] (FAD concentration not given) is given as ~ 10%. With `Cc1cc2nc3c(=O)[nH]c(=O)nc-3n(C[C@H](O)[C@H](O)[C@H](O)COP(=O)(O)O)c2cc1C` [FMN], in assay [1] (10 µM FMN), the “% stimulation” value is reported as ~ 35%. As to `NC(=O)C1=CN([C@@H]2O[C@H](COP(=O)(O)OP(=O)(O)OC[C@H]3O[C@@H](n4cnc5c(N)ncnc54)[C@H](O)[C@@H]3O)[C@@H](O)[C@H]2O)C=CC1` [NADH], in assay [2], the structure result is “FMN and NADH had well-defined densities in HydB”.

`NC(=O)c1ccc[n+]([C@@H]2O[C@H](COP(=O)(O)OP(=O)(O)OC[C@H]3O[C@@H](n4cnc5c(N)ncnc54)[C@H](O)[C@@H]3O)[C@@H](O)[C@H]2O)c1` [NAD]: the turnover entry in assay [3] is on record as “NiFe-HydABCSL reduced the Fd only if NAD was also added”.

For orientation: stoichiometry N means a count of units in the complex or per binding partner. Turning to “A. mobile NiFe-HydABCSL hydrogenase (heteropentamer) (complex)”, the stoichiometry N in assay [4] and in assay [5] was 2 each time.

For the origin of these results see article PMC8880783, “Structure and electron transfer pathways of an electron-bifurcating NiFe-hydrogenase” (Science Advances, 2022).
